Data published in publication PMC12664123, “Exploring Nirmatrelvir Derivatives Through P2 Substituent Modifications and Warhead Innovations Targeting the Main Protease of SARS‐CoV‐2” (Archiv Der Pharmazie, 2025).

Columns and labels:
[1] = Metabolic stability against liver microsomes, loss of parent compound by HPLC-UV; conditions: 37°C; for remaining parent compound after 480 min: rat liver microsomes 0.2 mg/mL, NADPH, 100 µM compound, 480 min (8 h); for metabolic stability toward liver microsomes (in words): rat liver microsomes, up to 480 min
WT SARS-CoV-2 Mpro = WT SARS-CoV-2 Mpro (Severe acute respiratory syndrome coronavirus 2, UniProt P0DTD1); experiment: Jump-dilution assay for reversibility of inhibition; type: biochemical; conditions: for mechanism of inhibition (reversibility): incubated 30 min at 100 nM M^pro and 200 nM inhibitor, 10-fold dilution, followed 30 min; for residual enzyme activity after jump dilution: 10-fold dilution to 10 nM M^pro, 20 nM inhibitor
SARS-CoV-2 M^pro [2] = target: T1, SARS-CoV-2 M^pro (Severe acute respiratory syndrome coronavirus 2, UniProt P0DTD1); experiment: Determination of the inhibition constants (Ki) for SARS-CoV-2 Mpro, Morrison equation, QS1 fluorogenic substrate; type: biochemical; conditions: for Ki / Biological Activity (pKi): M^pro 25 nM, QS1 20 µM; for Ki: 30 min preincubation at 37°C, pH 7.2; for Biological Activity (pKi): supplement table, 30 min preincubation at 37 °C; for fold more potent than compound 22 / ΔpK i relative to oxime analog 22: warhead exchange, vs compound 22
SARS-CoV-2 M^pro [3] = target: T1, SARS-CoV-2 M^pro; experiment: Determination of Kinact/KI for time-dependent (irreversible) inhibitors, progress curves; type: biochemical; conditions: for kinact/KI: read-out: Kinact/KI (supplement table)

SMILES | Ki (SARS-CoV-2 M^pro [2]) [nM] | Biological Activity (pKi) (SARS-CoV-2 M^pro [2]) | also measured
CO[C@@H]1C[C@@H](C(=O)N[C@H](C=NO)C[C@@H]2CCNC2=O)N(C(=O)[C@@H](NC(=O)C(F)(F)F)C(C)(C)C)C1 [Compound 22, (2S,4R)−1‐{(S)−3,3‐Dimethyl‐2‐(2,2,2‐Trifluoroacetamido)butanoyl}‐N‐[(S)−1‐(Hydroxyimino)−3‐[(S)−2‐Oxopyrrolidin‐3‐yl]Propan‐2‐yl]−4‐Methoxypyrrolidine‐2‐Carboxamide] | 158 | 6.8 ± 0.01 | remaining parent compound after 480 min [1]: ca. 60%; mechanism of inhibition (reversibility) (WT SARS-CoV-2 Mpro): reversible
CC(C)(C)[C@H](NC(=O)C(F)(F)F)C(=O)N1C[C@H](c2ccccc2)C[C@H]1C(=O)N[C@H](C=NO)C[C@@H]1CCNC1=O [Compound 23, (2S,4S)−1‐{(S)−3,3‐Dimethyl‐2‐(2,2,2‐Trifluoroacetamido)Butanoyl}‐N‐[(S)−1‐(Hydroxyimino)−3‐[(S)−2‐Oxopyrrolidin‐3‐yl]Propan‐2‐yl]−4‐Phenylpyrrolidine‐2‐Carboxamide] | 50.1 | 7.3 ± 0.01 | –
C=CCO[C@@H]1C[C@@H](C(=O)N[C@H](C=NO)C[C@@H]2CCNC2=O)N(C(=O)[C@@H](NC(=O)C(F)(F)F)C(C)(C)C)C1 [Compound 24, (2S,4R)−4‐(Allyloxy)−1‐{(S)−3,3‐Dimethyl‐2‐(2,2,2‐Trifluoroacetamido)Butanoyl}‐N‐[(S)−1‐(Hydroxyimino)−3‐[(S)−2‐Oxopyrrolidin‐3‐yl]Propan‐2‐yl]Pyrrolidine‐2‐Carboxamide] | 50.1 | 7.3 ± 0.08 | –
C#CCO[C@@H]1C[C@@H](C(=O)N[C@H](C=NO)C[C@@H]2CCNC2=O)N(C(=O)[C@@H](NC(=O)C(F)(F)F)C(C)(C)C)C1 [Compound 25, (2S,4R)−1‐{(S)−3,3‐Dimethyl‐2‐(2,2,2‐Trifluoroacetamido)Butanoyl}‐N‐[(S)−1‐(Hydroxyimino)−3‐[(S)−2‐Oxopyrrolidin‐3‐yl]Propan‐2‐yl]−4‐(Prop‐2‐yn‐1‐Yloxy)Pyrrolidine‐2‐Carboxamide] | 31.6 | 7.5 ± 0.04 | –
CCO[C@@H]1C[C@@H](C(=O)N[C@H](C=NO)C[C@@H]2CCNC2=O)N(C(=O)[C@@H](NC(=O)C(F)(F)F)C(C)(C)C)C1 [Compound 26, (2S,4R)−1‐{(S)−3,3‐Dimethyl‐2‐(2,2,2‐Trifluoroacetamido)Butanoyl}−4‐Ethoxy‐N‐[(S)−1‐(Hydroxyimino)−3‐[(S)−2‐Oxopyrrolidin‐3‐yl]Propan‐2‐yl]Pyrrolidine‐2‐Carboxamide] | 100 | 7.0 ± 0.02 | –
CC(C)(C)[C@H](NC(=O)C(F)(F)F)C(=O)N1C[C@H](C2CCCCC2)C[C@H]1C(=O)N[C@H](C=NO)C[C@@H]1CCNC1=O [Compound 27, (2S,4S)−4‐Cyclohexyl‐1‐{(S)−3,3‐Dimethyl‐2‐(2,2,2‐Trifluoroacetamido)Butanoyl}‐N‐[(S)−1‐(Hydroxyimino)−3‐[(S)−2‐Oxopyrrolidin‐3‐yl]Propan‐2‐yl]Pyrrolidine‐2‐Carboxamide] | 100 | 7.0 ± 0.02 | –
CC(=O)N[C@@H]1C[C@@H](C(=O)N[C@H](C=NO)C[C@@H]2CCNC2=O)N(C(=O)[C@@H](NC(=O)C(F)(F)F)C(C)(C)C)C1 [Compound 28, (2S,4R)−4‐Acetamido‐1‐{(S)−3,3‐Dimethyl‐2‐(2,2,2‐Trifluoroacetamido)Butanoyl}‐N‐[(S)−1‐(Hydroxyimino)−3‐[(S)−2‐Oxopyrrolidin‐3‐yl]Propan‐2‐yl]Pyrrolidine‐2‐Carboxamide] | 100 | 7.0 ± 0.03 | –
CC(C)(C)[C@H](NC(=O)C(F)(F)F)C(=O)N1C[C@H](OCc2ccccc2)C[C@H]1C(=O)N[C@H](C=NO)C[C@@H]1CCNC1=O [Compound 29, (2S,4R)−4‐(Benzyloxy)−1‐{(S)−3,3‐Dimethyl‐2‐(2,2,2‐Trifluoroacetamido)Butanoyl}‐N‐[(S)−1‐(Hydroxyimino)−3‐[(S)−2‐Oxopyrrolidin‐3‐yl]Propan‐2‐yl]Pyrrolidine‐2‐Carboxamide] | 200 | 6.7 ± 0.02 | –
CO[C@@H]1C[C@@H](C(=O)N[C@H](/C=C(\F)S(=O)(=O)c2ccccc2)C[C@@H]2CCNC2=O)N(C(=O)[C@@H](NC(=O)C(F)(F)F)C(C)(C)C)C1 [Compound 30, (2S,4R)−1‐{(S)−3,3‐Dimethyl‐2‐(2,2,2‐Trifluoroacetamido)Butanoyl}‐N‐[(S,E)−4‐Fluoro‐1‐((S)−2‐Oxopyrrolidin‐3‐yl)−4‐(Phenylsulfonyl)but‐3‐en‐2‐yl]−4‐Methoxypyrrolidine‐2‐Carboxamide] | 7.94 | 8.1 ± 0.01 | remaining parent compound after 480 min [1]: ~100%; mechanism of inhibition (reversibility) (WT SARS-CoV-2 Mpro): reversible; fold more potent than compound 22 (SARS-CoV-2 M^pro [2]): ~20 fold; ΔpK i relative to oxime analog 22 (SARS-CoV-2 M^pro [2]): 1.3
CO[C@@H]1C[C@@H](C(=O)N[C@H](C#N)C[C@@H]2CCNC2=O)N(C(=O)[C@@H](NC(=O)C(F)(F)F)C(C)(C)C)C1 [Compound 31, (2S,4R)‐N‐[(S)−1‐Cyano‐2‐[(S)−2‐Oxopyrrolidin‐3‐yl]Ethyl]−1‐{(S)−3,3‐Dimethyl‐2‐(2,2,2‐Trifluoroacetamido)Butanoyl}−4‐Methoxypyrrolidine‐2‐Carboxamide] | 1.58 | 8.8 ± 0.01 | remaining parent compound after 480 min [1]: ~100%; fold more potent than compound 22 (SARS-CoV-2 M^pro [2]): 100 fold; ΔpK i relative to oxime analog 22 (SARS-CoV-2 M^pro [2]): 2.0
CO[C@@H]1C[C@@H](C(=O)N[C@H](/C=C/S(=O)(=O)c2ccccc2)C[C@@H]2CCNC2=O)N(C(=O)[C@@H](NC(=O)C(F)(F)F)C(C)(C)C)C1 [Compound 32, (2S,4R)−1‐{(S)−3,3‐Dimethyl‐2‐(2,2,2‐Trifluoroacetamido)butanoyl}−4‐Methoxy‐N‐[(S,E)−1‐((S)−2‐Oxopyrrolidin‐3‐yl)−4‐(Phenylsulfonyl)but‐3‐en‐2‐yl]Pyrrolidine‐2‐Carboxamide] | – | – | kinact/KI (SARS-CoV-2 M^pro [3]): 4400 M⁻¹ s⁻¹; residual enzyme activity after jump dilution (WT SARS-CoV-2 Mpro): very low residual enzyme activity; mechanism of inhibition (reversibility) (WT SARS-CoV-2 Mpro): irreversible
COc1ccc(C(=O)ON=C[C@H](C[C@@H]2CCNC2=O)NC(=O)[C@@H]2C[C@@H](OC)CN2C(=O)[C@@H](NC(=O)C(F)(F)F)C(C)(C)C)cc1 [Compound 33, (2S,4R)−1‐{(S)−3,3‐Dimethyl‐2‐(2,2,2‐Trifluoroacetamido)Butanoyl}−4‐Methoxy‐N‐[(S)−1‐[((4‐Methoxybenzoyl)Oxy)Imino]−3‐[(S)−2‐Oxopyrrolidin‐3‐yl]Propan‐2‐yl]Pyrrolidine‐2‐Carboxamide] | – | – | metabolic stability toward liver microsomes (in words) [1]: readily degraded; fold higher reactivity than the vinyl sulfone (32) (SARS-CoV-2 M^pro [3]; Kinact/KI of 33 vs 32): ~20 fold; kinact/KI (SARS-CoV-2 M^pro [3]): 77000 M⁻¹ s⁻¹; residual enzyme activity after jump dilution (WT SARS-CoV-2 Mpro): very low residual enzyme activity; mechanism of inhibition (reversibility) (WT SARS-CoV-2 Mpro): irreversible
CC(C)(C)[C@H](NC(=O)C(F)(F)F)C(=O)N1C[C@H](c2ccccc2)C[C@H]1C(=O)N[C@H](C#N)C[C@@H]1CCNC1=O [Compound 34, (2S,4S)‐N‐[(S)−1‐Cyano‐2‐[(S)−2‐Oxopyrrolidin‐3‐yl]Ethyl]−1‐{(S)−3,3‐Dimethyl‐2‐(2,2,2‐Trifluoroacetamido)Butanoyl}−4‐Phenylpyrrolidine‐2‐Carboxamide] | 1.26 | 8.9 ± 0.01 | metabolic stability toward liver microsomes (in words) [1]: comparable stability to the initial prototype 22
CC(C)(C)[C@H](NC(=O)C(F)(F)F)C(=O)N1C[C@H]2[C@@H]([C@H]1C(=O)N[C@H](C#N)C[C@@H]1CCNC1=O)C2(C)C [nirmatrelvir] | – | – | remaining parent compound after 480 min [1]: ca. 80%
C[C@]12CC[C@H]3[C@@H](CCC4=CC(=O)CC[C@@]43C)[C@@H]1CC[C@@H]2O [testosterone, reference compound] | – | – | metabolic stability toward liver microsomes (in words) [1]: readily degraded
